According to patent publication US8106072B2, “7- (4-substituted-3-cyclopropylaminomethyl-1-pyrrolidinyl) quinolonecarboxylic acid derivative” (Kyorin Pharmaceutical Co., Ltd., priority 2003, dated 2012):
≈ marks a conversion by molar mass, not a printed value.

Assays:
Assay in all cases: In vitro antibacterial activity (MIC, agar plate dilution)
Type in all cases: cell-based
E. faecalis IID682 = conditions: Enterococcus faecalis, Muller-Hinton agar supplemented with 5% defibrinated horse blood
Method: (§1) The in-vitro antibacterial activity of the compound of the present invention, as measured by the minimum inhibitory concentration (MIC), was determined by the agar plate dilution technique using Mueller-Hinton agar medium. The technique met the criteria specified by the National Committee for Clinical Laboratory Standard (1997) [NCCLS. Methods for Dilution Antibacterial Susceptibility Tests for Bacteria that grow Aerobically—Forth Edition: Approved Standard m7-A4. NCCLS, Villanova, Pa.]. For Streptococcus pneumonia and Enterococcus, the MIC values were determined by using Muller-Hinton agar supplemented with 5% defibrinated horse blood.

S. aureus MS16401 = conditions: Staphylococcus aureus, S. aureus MS16401 (quinolone-resistant S. aureus), Mueller-Hinton agar
Method: as §1

S. pneumoniae Type III = conditions: Streptococcus pneumoniae, Muller-Hinton agar supplemented with 5% defibrinated horse blood
Method: as §1

S. aureus MR5867 = conditions: Staphylococcus aureus, S. aureus MR5867 (methicillin-resistant S. aureus), Mueller-Hinton agar
Method: as §1

S. aureus Smith = conditions: Staphylococcus aureus, Mueller-Hinton agar
Method: as §1

Structure (SMILES)	MIC (E. faecalis IID682)	MIC (S. aureus MS16401)	MIC (S. pneumoniae Type III)	MIC (S. aureus MR5867)	MIC (S. aureus Smith)
COc1c(N2C[C@@H](CNC3CC3)[C@H](C(F)(F)F)C2)c(F)cc2c(=O)c(C(=O)O)cn(C3CC3)c12 (relative stereo) [Example 6, 1-cyclopropyl-7-(trans-3-cyclopropylaminomethyl-4-trifluoromethyl-1-pyrrolidinyl)-6-fluoro-1,4-dihydro-8-methoxy-4-oxo-3-quinolinecarboxylic acid]	250 µg/mL (≈ 517 µM)	63 µg/mL (≈ 130 µM)	63 µg/mL (≈ 130 µM)	8 µg/mL (≈ 16.5 µM)	31 µg/mL (≈ 64.1 µM)
COc1c(N2C[C@@H](CNC3CC3)[C@H](C)C2)c(F)cc2c(=O)c(C(=O)O)cn(C3CC3)c12 (relative stereo) [Example 5, 1-cyclopropyl-7-(trans-3-cyclopropylaminomethyl-4-methyl-1-pyrrolidinyl)-6-fluoro-1,4-dihydro-8-methoxy-4-oxo-3-quinolinecarboxylic acid]	125 µg/mL (≈ 291 µM)	16 µg/mL (≈ 37.3 µM)	31 µg/mL (≈ 72.2 µM)	8 µg/mL (≈ 18.6 µM)	8 µg/mL (≈ 18.6 µM)
COc1c(N2C[C@H](CNC3CC3)[C@@H](C)C2)ccc2c(=O)c(C(=O)O)cn(C3CC3)c12 [Example 7, 1-cyclopropyl-7-[(3S,4R)-3-cyclopropylaminomethyl-4-methyl-1-pyrrolidinyl]-1,4-dihydro-8-methoxy-4-oxo-3-quinolinecarboxylic acid]	250 µg/mL (≈ 608 µM)	125 µg/mL (≈ 304 µM)	63 µg/mL (≈ 153 µM)	63 µg/mL (≈ 153 µM)	31 µg/mL (≈ 75.3 µM)
COc1c(N2C[C@@H](CNC3CC3)[C@H](C)C2)ccc2c(=O)c(C(=O)O)cn(C3CC3)c12 [Example 8, 1-cyclopropyl-7-[(3R,4S)-3-cyclopropylaminomethyl-4-methyl-1-pyrrolidinyl]-1,4-dihydro-8-methoxy-4-oxo-3-quinolinecarboxylic acid]	500 µg/mL (≈ 1220 µM)	63 µg/mL (≈ 153 µM)	125 µg/mL (≈ 304 µM)	31 µg/mL (≈ 75.3 µM)	31 µg/mL (≈ 75.3 µM)
COc1c(N2C[C@H](CNC3CC3)[C@H](F)C2)ccc2c(=O)c(C(=O)O)cn(C3CC3)c12 [Example 2, 1-cyclopropyl-7-[(3S,4S)-3-cyclopropylaminomethyl-4-fluoro-1-pyrrolidinyl]-1,4-dihydro-8-methoxy-4-oxo-3-quinolinecarboxylic acid]	125 µg/mL (≈ 301 µM)	31 µg/mL (≈ 74.6 µM)	31 µg/mL (≈ 74.6 µM)	16 µg/mL (≈ 38.5 µM)	8 µg/mL (≈ 19.3 µM)

The remaining lines, values ahead:

MIC (E. faecalis IID682)	MIC (S. aureus MS16401)	MIC (S. pneumoniae Type III)	MIC (S. aureus MR5867)	MIC (S. aureus Smith)	Structure (SMILES)
63 µg/mL (≈ 145 µM)	4 µg/mL (≈ 9.23 µM)	≤ 8 µg/mL	8 µg/mL (≈ 18.5 µM)	8 µg/mL (≈ 18.5 µM)	COc1c(N2C[C@H](CNC3CC3)[C@H](F)C2)c(F)cc2c(=O)c(C(=O)O)cn(C3CC3)c12 [Example 1, 1-cyclopropyl-7-[(3S,4S)-3-cyclopropylaminomethyl-4-fluoro-1-pyrrolidinyl]-6-fluoro-1,4-dihydro-8-methoxy-4-oxo-3-quinolinecarboxylic acid]
500 µg/mL (≈ 1110 µM)	63 µg/mL (≈ 140 µM)	63 µg/mL (≈ 140 µM)	31 µg/mL (≈ 68.7 µM)	16 µg/mL (≈ 35.4 µM)	O=C(O)c1cn(C2CC2)c2c(OC(F)F)c(N3C[C@H](CNC4CC4)[C@H](F)C3)ccc2c1=O [Example 4, 1-cyclopropyl-7-[(3S,4S)-3-cyclopropylaminomethyl-4-fluoro-1-pyrrolidinyl]-8-difluoromethoxy-1,4-dihydro-4-oxo-3-quinolinecarboxylic acid]
63 µg/mL (≈ 145 µM)	16 µg/mL (≈ 36.9 µM)	≤ 8 µg/mL	≤ 8 µg/mL	≤ 8 µg/mL	COc1c(N2C[C@H](CNC3CC3)[C@@H](F)C2)c(F)cc2c(=O)c(C(=O)O)cn(C3CC3)c12 [Example 9, 1-cyclopropyl-7-[(3S,4R)-3-cyclopropylaminomethyl-4-fluoro-1-pyrrolidinyl]-6-fluoro-1,4-dihydro-8-methoxy-4-oxo-3-quinolinecarboxylic acid]
125 µg/mL (≈ 266 µM)	8 µg/mL (≈ 17 µM)	16 µg/mL (≈ 34.1 µM)	8 µg/mL (≈ 17 µM)	8 µg/mL (≈ 17 µM)	O=C(O)c1cn(C2CC2)c2c(OC(F)F)c(N3C[C@H](CNC4CC4)[C@H](F)C3)c(F)cc2c1=O [Example 3, 1-cyclopropyl-7-[(3S,4S)-3-cyclopropylaminomethyl-4-fluoro-1-pyrrolidinyl]-6-fluoro-8-difluoromethoxy-1,4-dihydro-4-oxo-3-quinolinecarboxylic acid]
